Values quoted from earlier work in patent US8791095B2, “Steroidal CYP17 inhibitors/antiandrogens” (Tokai Pharmaceuticals, Inc., priority 2009, dated 2014).

How the values were obtained:
[1] = system: LAPC4 human prostate tumor xenograft; conditions: for inhibition of growth of LAPC4 xenograft (in words): in vivo
human CYP17 enzyme = molecular target: T1, human CYP17 enzyme (Homo sapiens, UniProt P05093); conditions: read-out: IC50, inhibition of human CYP17 enzyme
T1 sequence (P05093 1-508): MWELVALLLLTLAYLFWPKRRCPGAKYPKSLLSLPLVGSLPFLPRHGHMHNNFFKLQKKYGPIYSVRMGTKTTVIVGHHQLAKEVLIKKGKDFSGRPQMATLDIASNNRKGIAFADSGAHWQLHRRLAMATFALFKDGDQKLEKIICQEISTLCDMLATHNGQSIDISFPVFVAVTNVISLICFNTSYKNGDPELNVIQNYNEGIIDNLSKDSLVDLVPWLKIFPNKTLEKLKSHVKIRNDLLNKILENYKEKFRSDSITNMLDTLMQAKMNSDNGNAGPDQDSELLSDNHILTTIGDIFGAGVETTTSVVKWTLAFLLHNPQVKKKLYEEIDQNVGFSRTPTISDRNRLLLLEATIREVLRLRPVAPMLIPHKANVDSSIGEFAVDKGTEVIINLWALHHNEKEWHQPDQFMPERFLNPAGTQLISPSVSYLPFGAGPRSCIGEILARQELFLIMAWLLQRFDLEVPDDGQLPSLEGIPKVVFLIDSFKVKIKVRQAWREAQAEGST

| conversion into a metabolite (metabolite tentatively identified as 17-(1H-benzimidazol-1-yl)androsta-3-one) | IC50 (human CYP17 enzyme) [nM] | SMILES | efficacy compared with castration ([1]; 50 mg/kg, twice daily) | reduction in the mean final tumor volume compared with controls ([1]; 50 mg/kg, twice daily, P=0.00065) [%] | inhibition of growth of LAPC4 xenograft (in words) [1] | peak plasma level (mice, s.c. 50 mg/kg) [ng/mL] | detectability in plasma at 8 hours (mice, s.c. 50 mg/kg) | terminal half-life in plasma (mice, s.c. 50 mg/kg) [min] |
| --- | --- | --- | --- | --- | --- | --- | --- | --- |
| rapidly converted into a metabolite | 50 | C[C@]12CC[C@H](O)CC1=CC[C@@H]1[C@@H]2CC[C@]2(C)C(n3cnc4ccccc43)=CC[C@@H]12 [Compound 1, 3β-hydroxy-17-(1H-benzimidazole-1-yl)androsta-5,16-diene] | significantly more effective than castration | 93.8 | very effective | 16.82 | neither was detectable | – |
| – | – | C[C@]12CCC(=O)C=C1CCC1C2CC[C@]2(C)C(n3cnc4ccccc43)=CCC12 (stereo partly shown) [Compound 2, 17-(1H-benzimidazole-1-yl)androsta-4,16-diene-3-one] | – | – | ineffective | 5.15 | neither was detectable | 39.93 |
| – | 3 to 6 | C[C@]12CC[C@H](O)CC1=CC[C@@H]1[C@@H]2CC[C@]2(C)C(c3cccnc3)=CC[C@@H]12 [abiraterone, 3β-hydroxy-17-(pyrid-3-yl)androsta-5,16-diene] | – | – | – | – | – | – |

| SMILES | conversion into a metabolite (metabolite tentatively identified as 17-(1H-benzimidazol-1-yl)androsta-3-one) | IC50 (human CYP17 enzyme) [nM] | efficacy compared with castration ([1]; 50 mg/kg, twice daily) | reduction in the mean final tumor volume compared with controls ([1]; 50 mg/kg, twice daily, P=0.00065) [%] | inhibition of growth of LAPC4 xenograft (in words) [1] | peak plasma level (mice, s.c. 50 mg/kg) [ng/mL] | detectability in plasma at 8 hours (mice, s.c. 50 mg/kg) | terminal half-life in plasma (mice, s.c. 50 mg/kg) [min] |
| --- | --- | --- | --- | --- | --- | --- | --- | --- |
| CC12CCC(O)CC1=CCC1C2CCC2(C)C(c3cncnc3)=CCC12 (stereo not drawn) [Compound 3, 3β-hydroxy-17-(5′-pyrimidyl)androsta-5,16-diene] | – | 500 | – | – | – | – | – | – |
